Measurements reported in patent publication US10472612B2, “Cell culture system” (PRESIDENT AND FELLOWS OF HARVARD COLLEGE, priority 2011, dated 2019).

Legend:
Caco-2 cell monolayer [1] = assay type: cell-based; conditions: flow 40 μL/hr, cyclic strain 10%, 0.15 Hz
Experimental: Epithelial Barrier Measurements. The integrity of the human intestinal epithelial cell monolayer resulting from establishment of apical tight junctions was evaluated by staining for the tight junctional protein, occluidin,^29 using confocal immunofluorescence microscopy and by measuring trans-epithelial electrical resistance (TEER). In Transwell cultures, TEER was measured using a Millicell ERS meter (Millipore, Bedford, Mass.) coupled to a chopstick-like electrode, and TEER values (Ω cm^2) were determined by subtracting the baseline resistance value measured in the absence of cells and then multiplying the remaining ‘specific’ resistance value (Ω) times the cell culture surface area (cm^2). […] Again, the baseline resistance value measured in the absence of cells was subtracted from results obtained with the Caco-2 monolayer, and specific TEER values were determined by multiplying the specific resistance times the total cell culture surface area on the PDMS membrane (Table 1).

Caco-2 cell monolayer [2] = assay: LGG co-culture on Caco-2 monolayer in static Transwell; assay type: cell-based, human; conditions: first day of co-culture, not measurable after 48 hours
Experimental: Epithelial Barrier Measurements. The integrity of the human intestinal epithelial cell monolayer resulting from establishment of apical tight junctions was evaluated by staining for the tight junctional protein, occluidin,^29 using confocal immunofluorescence microscopy and by measuring trans-epithelial electrical resistance (TEER). In Transwell cultures, TEER was measured using a Millicell ERS meter (Millipore, Bedford, Mass.) coupled to a chopstick-like electrode, and TEER values (Ω cm^2) were determined by subtracting the baseline resistance value measured in the absence of cells and then multiplying the remaining ‘specific’ resistance value (Ω) times the cell culture surface area (cm^2). The TEER of the Caco-2 monolayer cultured in the Gut-on-a-Chip was measured using a voltage-ohm meter (87V Industrial Multimeter, Fluke Corporation, Everett, Wash.) coupled to Ag/AgCl electrode wires (0.008″ in diameter; A-M systems, Inc., Sequim, Wash.); control studies confirmed that similar TEER results were obtained with both methods. Again, the baseline resistance value measured in the absence of cells was subtracted from results obtained with the Caco-2 monolayer, and specific TEER values were determined by multiplying the specific resistance times the total cell culture surface area on the PDMS membrane (Table 1).
Microbial Studies. […]

[3] = system: Caco-2 cell monolayer alone or with HMVE cell monolayer; assay: Molecular permeability through cell monolayer in gut-on-a-chip with or without mechanical strain (Example 1); assay type: in vitro ADME, human; conditions: Caco-2 monolayer alone or with HMVE monolayer; cyclic stretching 0.15 Hz, 30 μL/h
Experimental: In a fluidic condition (N=4), constant perfusion flow of 30 μL/h was conducted without any stretching motions (i.e. shear stresses only). […] In a static condition (N=4), transport experiment was performed in a Transwell system. Error bars indicate standard errors.
In a fluidic condition (N=2), constant perfusion flow at 30 μL/h was conducted without any stretching motions (i.e. shear stresses only). […] In a static condition (N=4), transport experiments were performed in the Transwell system. Error bars indicate standard errors.
In a fluidic condition (N=5), constant perfusion flow of 30 μL/h was conducted without any stretching motions (i.e. shear stresses only). […] In a static condition (N=3), transport experiment was performed in a Transwell system. Error bars indicate standard errors.
After the cell monolayers were fully confluent and stabilized under defined fluidic conditions, transport experiments were conducted. […] The co-cultured monolayers of Caco-2 and HMVE cells experienced with cyclic deformations for 12 hours or more prior to initiating the transport or barrier functional analysis experiments. […] Electrical resistances between the top and the bottom microchannels were monitored using an Ag/AgCl electrode equipped with an Ohm meter, and the resistance was converted into TEER value by multiplying values by the surface area of the cell monolayer. […]

Row | Substance | barrier integrity (TEER) during co-culture (Caco-2 cell monolayer [1]) | TEER during co-culture (Caco-2 cell monolayer [2]) | effect of mechanical strain on paracellular transport [3]
1 | Lactobacillus rhamnosus GG [LGG] | improved | dissipated | 
2 | Lucifer yellow |  |  | increased
